The source of these data is US12390441B2, “Immunomodulating o-het/aryl azalides” (Zoetis Services LLC, priority 2020, dated 2025).

In general, MIC refers to the least concentration at which growth counts as inhibited. The term pIC50 denotes the negative decadic logarithm of the IC50, by convention in mol/L. A higher pIC50 goes with a small IC50.

pIC50: −log10 of the molar value. Read-outs that look alike come from different tables or passages of the source.

One experiment concerns M. haemolytica. The experiment is described as follows: In-vitro MIC model (CLSI broth micro-dilution). The class given is cell-based, Mannheimia haemolytica. To be noted: for MIC: Mannheimia haemolytica, read-out: Comparative MIC. For orientation: Broth dilution looks for growth in wells or tubes with falling amounts of substance.
The subject of experiment [1] is P. multocida. Briefly: In-vitro MIC model (CLSI broth micro-dilution). The class given is cell-based, Pasteurella multocida. To be noted: for MIC: Pasteurella multocida, read-out: Comparative MIC.
Another experiment has as its system S. aureus (29213 ATCC). The experiment is described as follows: In-vitro MIC model (CLSI broth micro-dilution). Format: cell-based. To be noted: Staphylococcus aureus, read-out: Comparative MIC.
Another experiment has as its system TNF-α. The experiment is described as follows: Whole blood assay, LPS stimulation, MSD cytokine detection. The class given is cell-based. To be noted: Bos taurus, fresh whole bovine blood.
In another experiment the test system is IL-1β. The description is as above. The class given is cell-based, bovine. To be noted: fresh whole bovine blood, LPS stimulation; drug concentration giving overstimulation (OS) of IL-1β.
For experiment [2], the system named is IL-6. Described as above. Format: cell-based. To be noted: Bos taurus, fresh whole bovine blood.
The test system of the next experiment is P. multocida 46572. The experiment is described as follows: In vivo mouse lung infection challenge model (murine). Further details: species or system CD-1 female mice. Particulars: 46572, sc, 20 mg/kg, 240 h. Put shortly: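 CD-1 female mice were challenged intranasally with mid-log P. multocida 46572 (target 5×10^2 CFU/mouse), then given 20 mg/kg subcutaneously in buffered (~pH 5.4) propylene glycol/monothioglycerol/water. Mortality was followed to Day 10, analysed by generalized mixed model and survival analysis; harmonized survival is relative to vehicle and positive controls.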

The test system of experiment [3] is M. haemolytica (OSU-012103-BHI). Particulars: inhaled or nasal.
The subject of experiment [4] is P. multocida. Briefly: Murine P. multocida intranasal challenge study, survival. Format: in vivo, mice. Particulars: 5×10^3 CFU/mouse; subcutaneous 18 hours after challenge; tulathromycin 16 mg/kg, M9 32 mg/kg, ceftiofur 9 mg/kg.
Another experiment concerns H. somni (A700025K). Briefly: In-vitro MIC model (CLSI broth micro-dilution). Format: cell-based, Histophilus somni.
Experiment [5] relates to IL-6. Briefly: Plasma IL-6 biomarker in bovine M. haemolytica challenge.

`CCCNC[C@]1(O)[C@H](C)O[C@@H](O[C@H]2[C@H](C)[C@@H](O[C@@H]3O[C@H](C)C[C@H](NC)[C@H]3Oc3ccccc3)[C@](C)(O)C[C@@H](C)CN[C@H](C)[C@@H](O)[C@](C)(O)[C@@H](CC)OC(=O)[C@@H]2C)C[C@@]1(C)OC` [Example E-112, (2R,3S,4R,5R,8R,10R,11R,12S,13S,14R)-2-ethyl-3,4,10-trihydroxy-13-(((2R,4R,5S,6S)-5-hydroxy-4-methoxy-4,6-dimethyl-5-((propylamino)methyl)tetrahydro-2H-pyran-2-yl)oxy)-3,5,8,10,12,14-hexamethyl-11-(((2S,3R,4S,6R)-6-methyl-4-(methylamino)-3-phenoxytetrahydro-2H-pyran-2-yl)oxy)-1-oxa-6-azacyclopentadecan-15-one]: the MIC in the experiment on M. haemolytica (M. haemolytica 12726) was > 64 µg/mL; in the experiment on M. haemolytica (M. haemolytica 33396), > 64 µg/mL; in the experiment on M. haemolytica (M. haemolytica 46571, bovine efficacy challenge strain) it was > 64 µg/mL; in the experiment with P. multocida [1] (P. multocida 43137), > 64 µg/mL; with P. multocida [1] (P. multocida 46572, murine efficacy challenge strain), > 64 µg/mL; with S. aureus (29213 ATCC), > 64 µg/mL. Also, the results for the pIC50 in the experiment on TNF-α and in the experiment on IL-6 [2] were 5.00 and 4.40, respectively. Also, the “IL-1ß OS of LPS” value in the experiment on IL-1β came out at 80 µM. Moreover, the “% Survival” value in the experiment with P. multocida 46572 came out at 53%. Also, the figures for the lung lesion scores in experiment [3] (0.01 mg/kg), in experiment [3] (0.05 mg/kg) and in experiment [3] (0.1 mg/kg) were 39, 41 and 27, respectively.
Turning to `CO/N=C(\C(=O)N[C@@H]1C(=O)N2C(C(=O)O)=C(CSC(=O)c3ccco3)CS[C@H]12)c1csc(N)n1` [ceftiofur], the “Survival at Day 7” value in the experiment on P. multocida [4] is recorded as ~90%.
As for `CCCN1C[C@H](C)[C@@H](O)[C@](C)(O)[C@@H](CC)OC(=O)[C@H](C)[C@@H](O[C@H]2C[C@@](C)(OC)[C@@H](O)[C@H](C)O2)[C@H](C)[C@@H](O[C@@H]2O[C@H](C)C[C@H](N(C)C)[C@H]2O)[C@](C)(O)C[C@H]1C` [gamithromycin, reference compound], the “MIC, M. haemolytica strains” value with M. haemolytica (screening panel strains) is 0.5 to 1 µg/mL. Further, in the experiment on P. multocida [1] (screening panel strains), the “MIC, P. multocida strains” value is 1 to 2 µg/mL. The “MIC, H. somni strains” value in the experiment with H. somni (A700025K) lay in the range of 0.25 to 8 µg/mL.
Turning to `CCCNC[C@]1(O)[C@H](C)O[C@@H](O[C@H]2[C@H](C)[C@@H](O[C@@H]3O[C@H](C)C[C@H](N(C)C)[C@H]3O)[C@](C)(O)C[C@@H](C)CN[C@H](C)[C@@H](O)[C@](C)(O)[C@@H](CC)OC(=O)[C@@H]2C)C[C@@]1(C)OC` [tulathromycin, (2R,3S,4R,5R,8R,10R,11R,12S,13S,14R)-11-(((2S,3R,4S,6R)-4-(dimethylamino)-3-hydroxy-6-methyltetrahydro-2H-pyran-2-yl)oxy)-2-ethyl-3,4,10-trihydroxy-13-(((2R,4R,5S,6S)-5-hydroxy-4-methoxy-4,6-dimethyl-5-((propylamino)methyl)tetrahydro-2H-pyran-2-yl)oxy)-3,5,8,10,12,14-hexamethyl-1-oxa-6-azacyclopentadecan-15-one], the “Survival at Day 7” value in the experiment with P. multocida [4] is reported as “about 80%”. In the experiment with IL-6 [5], the IL-6 levels entry is listed as “significantly reduced”.
